Measurements from ChEMBL document CHEMBL1201862, “PubChem BioAssay data set” (2004).
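Exposure lasted 48 hours, with cells grown in 96-well plates and compounds tested at five concentrations. GI50 is the concentration that inhibits growth by half.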 Calls of active or inactive are those of the source. Cut-off read from the data, not from the text of the source: active = GI50 up to about 1.1 µM and inactive = higher.

Legend:
Assay in all cases: NCI tumour cell line growth inhibition, 48 h
SW-620 = test system: SW-620
786-0 = test system: 786-0
SK-MEL-28 = test system: SK-MEL-28
MOLT-4 = test system: MOLT-4
SNB-75 = test system: SNB-75
EKVX = test system: EKVX
IGROV-1 = test system: IGROV-1
NCI-H460 = test system: NCI-H460
K562 = test system: K562
NCI-H226 = test system: NCI-H226
SK-MEL-2 = test system: SK-MEL-2
NCI/ADR-RES = test system: NCI/ADR-RES
ACHN = test system: ACHN
DLD-1 = test system: DLD-1
MCF7 = test system: MCF7
HT-29 = test system: HT-29
A549 = test system: A549
HL-60 = test system: HL-60
SN12C = test system: SN12C
NCI-H23 = test system: NCI-H23

Measured: GI50

O=C1/C(=C/c2ccccc2)CN(C(=O)/C=C/c2ccccc2)C/C1=C\c1ccccc1
inactive: SW-620 2.39 µM | 786-0 4.09 µM | SK-MEL-28 7.62 µM | MOLT-4 3.53 µM | SNB-75 13.5 µM | EKVX 24.5 µM | IGROV-1 6.95 µM | NCI-H460 11.5 µM | K562 2.98 µM | NCI-H226 18.8 µM | SK-MEL-2 21.4 µM | NCI/ADR-RES 1.86 µM | ACHN 14.2 µM | DLD-1 4.14 µM | MCF7 1.75 µM | HT-29 3.07 µM | A549 11.1 µM | HL-60 4.44 µM | SN12C 5.43 µM | NCI-H23 12.4 µM

C[N+](C)(C)CC(=O)N/N=C(\C(=O)NC1=C(Cl)C(=O)c2ccccc2C1=O)C(C#N)c1nc(-c2ccc([N+](=O)[O-])cc2)cs1 (centres undefined)
inactive: SW-620 8.15 µM | 786-0 8.63 µM | SK-MEL-28 6.1 µM | MOLT-4 13.4 µM | SNB-75 7.23 µM | EKVX 14.1 µM | IGROV-1 6.71 µM | NCI-H460 4.31 µM | K562 10.8 µM | NCI-H226 11.4 µM | SK-MEL-2 4.46 µM | NCI/ADR-RES 11.7 µM | ACHN 10.6 µM | DLD-1 11.3 µM | MCF7 5.41 µM | HT-29 8.38 µM | A549 4.54 µM | HL-60 5.73 µM | SN12C 9.42 µM | NCI-H23 2.51 µM

O=C1/C(=C/c2ccc3c(c2)OCO3)CCC1CN1CCOCC1 (centres undefined)
inactive: SW-620 2.07 µM | 786-0 5.42 µM | SK-MEL-28 3.4 µM | MOLT-4 1.95 µM | SNB-75 14.6 µM | EKVX 16.6 µM | IGROV-1 16.1 µM | NCI-H460 17.4 µM | K562 2.03 µM | NCI-H226 16.7 µM | SK-MEL-2 12 µM | ACHN 10.7 µM | DLD-1 2.39 µM | MCF7 2.1 µM | HT-29 5.77 µM | A549 20.9 µM | HL-60 1.44 µM | SN12C 4.06 µM | NCI-H23 8.83 µM
